According to US9731013B2 (UNIVERSITY OF FLORIDA RESEARCH FOUNDATION, INC., priority 2008, dated 2017):

Columns and labels:
[1] = Radiofrequency (RF) heating of samples dissolved or suspended in water; type: physicochemical; conditions: RF 13.56 MHz, 500 W, 250 μL sample in water; for temperature rise (in words): up to five minutes
Description: FIG. 1 is a plot of the temperature rise of samples comprising functionalized fullerenes according to embodiments of the invention that are dissolved or suspended in water during irradiation with RF at 13.56 MHz and 500 W RF power over a period of five minutes.
FIG. 2 is a bar graph of the temperature rise of samples comprising functionalized fullerenes according to embodiments of the invention that are dissolved or suspended in water after irradiation with RF at 13.56 MHz and 500 W RF power for 30 seconds (left bars) and 60 seconds (right bars).
Heating of a volume of water by irradiation of fullerene comprising compounds was carried out using a radiofrequency (RF) heating system (Therm Med, LLC, Erie, Pa.) operating at 13.56 MHz and 500 W RF power. A volume of 250 μL of sample dissolved or suspended in water was pipetted into a cylindrical quartz cuvette for RF exposure. The cuvette was placed on a thin horizontal Teflon sample holder positioned at a depth of 7.6 cm from RF generator.

[2] = Water solubility observation of samples; type: physicochemical

Row | temperature rise in 5 minutes ([1]; 5 minutes) [°C] | water solubility (in words) [2] | temperature rise (in words) [1] | Substance
1 | 10 | not water soluble |  | Gadofullerenes (Gd@C82) [GdF]
2 |  |  | Temperature rise was observed | Polyhydroxy fullerenes [PBU]
3 |  | not water soluble | did not show a temperature rise | Pristine C60 [FN, reference compound]
